Active and inactive are the calls of the source. The rule behind the calls is not given here.
Tests used:
in vitro [1] = conditions: PAMPA
Description: Membrane permeability dissolved in PBS/EtOH (70:30) mixture by PAMPA-BBB assay

Beta-secretase 1 [2] = target: T1, Beta-secretase 1 (Homo sapiens, UniProt P56817); test: Inhibition of human recombinant BACE1 by fluorimetric assay
[3] = target: Amyloid-beta precursor protein (Homo sapiens) (UniProt P05067); test: Inhibition of self-induced amyloid beta (1-42) aggregation at 50 uM by thioflavin T fluorescence method
Acetylcholinesterase [4] = target: T2, Acetylcholinesterase (Homo sapiens, UniProt P22303)
Description: Inhibition of AChE in human erythrocytes by Ellman's method

Cholinesterase = Cholinesterase (Homo sapiens, UniProt P06276); test: Inhibition of human serum BChE by Ellman's method
Acetylcholinesterase [5] = target: T3, Acetylcholinesterase (Bos taurus, UniProt P23795); test: Inhibition of bovine AChE by Ellman's method
T3 sequence (P23795 whole entry): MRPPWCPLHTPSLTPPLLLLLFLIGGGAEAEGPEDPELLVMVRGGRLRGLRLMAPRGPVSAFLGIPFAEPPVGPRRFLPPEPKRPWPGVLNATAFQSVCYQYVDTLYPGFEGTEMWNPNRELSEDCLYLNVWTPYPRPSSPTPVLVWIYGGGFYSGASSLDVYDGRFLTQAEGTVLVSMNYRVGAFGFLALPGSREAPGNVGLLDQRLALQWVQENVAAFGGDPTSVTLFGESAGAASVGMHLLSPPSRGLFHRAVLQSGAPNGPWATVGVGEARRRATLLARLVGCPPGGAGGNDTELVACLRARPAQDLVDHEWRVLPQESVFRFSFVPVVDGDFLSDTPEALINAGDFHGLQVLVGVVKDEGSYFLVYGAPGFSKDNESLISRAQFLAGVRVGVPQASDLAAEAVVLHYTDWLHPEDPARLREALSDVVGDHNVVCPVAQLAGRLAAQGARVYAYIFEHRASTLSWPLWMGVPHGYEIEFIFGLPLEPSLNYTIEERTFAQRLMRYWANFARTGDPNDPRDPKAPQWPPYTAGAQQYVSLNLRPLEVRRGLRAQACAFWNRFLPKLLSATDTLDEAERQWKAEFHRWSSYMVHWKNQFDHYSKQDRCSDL

Beta-secretase 1 [6] = target: T1, Beta-secretase 1; test: Inhibition of human recombinant BACE1 at 2.5 uM by fluorimetric assay
in vitro [7] = conditions: PAMPA; remark: listed apart in the source
Description: Membrane permeability dissolved in PBS/EtOH (80:20) mixture by PAMPA-BBB assay

Acetylcholinesterase [8] = target: T2, Acetylcholinesterase; test: Inhibition of human recombinant AChE by Lineweaver-Burke reciprocal plot analysis

T1 sequence (P56817 whole entry): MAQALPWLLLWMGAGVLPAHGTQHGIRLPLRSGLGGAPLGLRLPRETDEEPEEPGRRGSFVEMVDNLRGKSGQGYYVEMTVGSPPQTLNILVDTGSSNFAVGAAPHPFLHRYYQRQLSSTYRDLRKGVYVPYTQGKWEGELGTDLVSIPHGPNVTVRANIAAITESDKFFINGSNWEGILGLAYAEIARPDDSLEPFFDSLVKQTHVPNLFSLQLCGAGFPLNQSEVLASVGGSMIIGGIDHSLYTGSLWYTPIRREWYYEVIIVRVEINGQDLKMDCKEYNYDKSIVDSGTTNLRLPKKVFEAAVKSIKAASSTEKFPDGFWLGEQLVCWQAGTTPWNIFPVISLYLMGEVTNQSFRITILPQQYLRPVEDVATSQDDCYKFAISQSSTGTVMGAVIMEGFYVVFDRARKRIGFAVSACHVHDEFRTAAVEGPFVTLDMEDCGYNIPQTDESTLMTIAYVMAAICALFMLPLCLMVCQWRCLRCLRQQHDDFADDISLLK
T2 sequence (P22303 whole entry): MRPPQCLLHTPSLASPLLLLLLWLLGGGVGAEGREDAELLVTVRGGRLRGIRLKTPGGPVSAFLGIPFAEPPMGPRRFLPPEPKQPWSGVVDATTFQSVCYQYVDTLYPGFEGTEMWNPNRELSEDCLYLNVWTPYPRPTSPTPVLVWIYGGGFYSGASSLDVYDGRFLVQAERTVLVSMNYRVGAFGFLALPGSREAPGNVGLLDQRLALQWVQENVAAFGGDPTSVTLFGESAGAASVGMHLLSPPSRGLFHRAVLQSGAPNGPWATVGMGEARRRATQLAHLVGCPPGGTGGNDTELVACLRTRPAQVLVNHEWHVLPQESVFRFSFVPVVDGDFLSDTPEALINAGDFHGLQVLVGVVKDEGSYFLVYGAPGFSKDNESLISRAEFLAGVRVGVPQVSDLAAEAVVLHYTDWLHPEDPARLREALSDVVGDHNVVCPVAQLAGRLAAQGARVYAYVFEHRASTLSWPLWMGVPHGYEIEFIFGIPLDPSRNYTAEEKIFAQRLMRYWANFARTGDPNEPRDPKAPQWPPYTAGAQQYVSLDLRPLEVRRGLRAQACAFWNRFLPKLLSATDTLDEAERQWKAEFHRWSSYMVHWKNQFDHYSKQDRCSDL
Chain of Cholinesterase (P06276 whole entry): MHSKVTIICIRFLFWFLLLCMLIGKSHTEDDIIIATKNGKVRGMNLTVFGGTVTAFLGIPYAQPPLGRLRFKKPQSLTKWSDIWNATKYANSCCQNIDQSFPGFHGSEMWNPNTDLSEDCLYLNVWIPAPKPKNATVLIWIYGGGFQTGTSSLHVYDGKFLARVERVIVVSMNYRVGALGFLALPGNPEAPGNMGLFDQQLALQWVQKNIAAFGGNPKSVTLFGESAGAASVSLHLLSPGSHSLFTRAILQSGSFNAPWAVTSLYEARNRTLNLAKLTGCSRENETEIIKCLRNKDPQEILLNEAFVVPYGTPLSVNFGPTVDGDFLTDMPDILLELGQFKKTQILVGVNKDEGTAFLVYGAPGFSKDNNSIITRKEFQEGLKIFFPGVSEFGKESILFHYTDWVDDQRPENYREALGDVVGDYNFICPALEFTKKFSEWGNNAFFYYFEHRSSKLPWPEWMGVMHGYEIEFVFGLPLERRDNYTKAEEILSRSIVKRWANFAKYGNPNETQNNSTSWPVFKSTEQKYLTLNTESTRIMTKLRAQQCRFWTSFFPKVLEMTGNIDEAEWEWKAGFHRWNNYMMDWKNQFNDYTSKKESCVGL
Chain of Amyloid-beta precursor protein (Homo sapiens) (P05067 whole entry): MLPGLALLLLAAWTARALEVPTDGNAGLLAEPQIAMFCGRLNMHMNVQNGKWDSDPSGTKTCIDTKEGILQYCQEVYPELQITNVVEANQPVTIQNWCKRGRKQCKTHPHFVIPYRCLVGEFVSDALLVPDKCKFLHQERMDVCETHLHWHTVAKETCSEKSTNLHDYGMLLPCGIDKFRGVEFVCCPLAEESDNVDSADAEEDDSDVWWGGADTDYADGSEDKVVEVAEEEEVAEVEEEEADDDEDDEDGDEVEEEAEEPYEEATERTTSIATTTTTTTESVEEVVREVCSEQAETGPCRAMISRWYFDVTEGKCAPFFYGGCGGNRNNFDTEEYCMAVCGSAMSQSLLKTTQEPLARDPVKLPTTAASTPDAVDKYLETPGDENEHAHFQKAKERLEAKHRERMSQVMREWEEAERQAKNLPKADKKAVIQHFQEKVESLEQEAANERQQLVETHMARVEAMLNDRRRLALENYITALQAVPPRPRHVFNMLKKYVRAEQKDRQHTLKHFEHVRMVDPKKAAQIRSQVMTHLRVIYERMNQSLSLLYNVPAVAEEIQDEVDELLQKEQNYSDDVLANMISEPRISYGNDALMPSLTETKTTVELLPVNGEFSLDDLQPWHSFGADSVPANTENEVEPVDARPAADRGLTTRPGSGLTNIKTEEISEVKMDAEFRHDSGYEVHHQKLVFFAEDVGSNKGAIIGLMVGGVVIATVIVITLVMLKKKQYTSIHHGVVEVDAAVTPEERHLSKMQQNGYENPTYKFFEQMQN

`Cl.Cl.Cl.O=C(CCc1ccc2nc(-c3ccccc3)c3c(c2c1)OCCC3)NCCCCCCCCNc1c2c(nc3cc(Cl)ccc13)CCCC2` gave a Papp (in vitro [1]) of 10.1 ×10⁻⁶ cm/s, an IC50 (Beta-secretase 1 [2]) of 1810 nM and an inhibition [3] of 47.3%. It also gave an IC50 (Acetylcholinesterase [4]) of 14 nM, an IC50 (Cholinesterase) of 1080 nM and an IC50 (Acetylcholinesterase [5]) of 34.1 nM. For the same molecule, the inhibition (Beta-secretase 1 [6]) was 77.8%.
For `CN(C)CCCN1c2ccccc2Sc2ccc(Cl)cc21` [CHLORPROMAZINE], the Papp (in vitro [1]) was 13.6 ×10⁻⁶ cm/s and the Papp (in vitro [7]) was 8.5 ×10⁻⁶ cm/s.
Molecule `O=C(NCCCCCCCCNc1c2c(nc3cc(Cl)ccc13)CCCC2)c1ccc2nc(-c3ccc(Cl)cc3)c3c(c2c1)OCCC3` has an inhibition [3] of 21.5%, an IC50 (Acetylcholinesterase [4]) of 7.03 nM and an IC50 (Cholinesterase) of 331 nM. It also gave an IC50 (Acetylcholinesterase [5]) of 10.4 nM, an inhibition (Beta-secretase 1 [6]) of 18.5% and a Ki (Acetylcholinesterase [8]) of 1.91 nM.
For `Cl.Nc1c2c(nc3cc(Cl)ccc13)CCCC2`, the inhibition [3] was 7.1%, the Papp (in vitro [7]) was 19.8 ×10⁻⁶ cm/s and the inhibition (Beta-secretase 1 [6]) was “inactive”.
In the case of `Cl.Cl.Cl.O=C(CCc1ccc2nc(-c3ccccc3)c3c(c2c1)OCCC3)NCCCCNc1c2c(nc3cc(Cl)ccc13)CCCC2`, the inhibition [3] is reported as 45.3%, the IC50 (Acetylcholinesterase [4]) is reported as 16.6 nM and the IC50 (Cholinesterase) is reported as 586 nM. For the same molecule, the IC50 (Acetylcholinesterase [5]) was 48.1 nM, the Papp (in vitro [7]) was 15.1 ×10⁻⁶ cm/s and the inhibition (Beta-secretase 1 [6]) was “inactive”.
In the case of `CCOC(=O)c1ccc2nc(-c3ccc(Cl)cc3)c3c(c2c1)OCCC3`, the IC50 (Acetylcholinesterase [4]) is reported as over 10000 nM, the IC50 (Cholinesterase) is reported as over 10000 nM and the IC50 (Acetylcholinesterase [5]) is reported as over 10000 nM.
Molecule `O=C(NCCCCCCCCCNc1c2c(nc3cc(Cl)ccc13)CCCC2)c1ccc2nc(-c3ccc(Cl)cc3)c3c(c2c1)OCCC3` has an IC50 (Acetylcholinesterase [4]) of 24.9 nM, an IC50 (Cholinesterase) of 1390 nM and an IC50 (Acetylcholinesterase [5]) of 24 nM.
With `Cl.Cl.Cl.O=C(CCc1ccc2nc(-c3ccccc3)c3c(c2c1)OCCC3)NCCCCCCCNc1c2c(nc3cc(Cl)ccc13)CCCC2` the Papp (in vitro [1]) was 10.2 ×10⁻⁶ cm/s, the inhibition [3] was 49.1% and the IC50 (Acetylcholinesterase [4]) was 14.4 nM. For the same molecule, the IC50 (Cholinesterase) was 234 nM, the IC50 (Acetylcholinesterase [5]) was 29.9 nM and the inhibition (Beta-secretase 1 [6]) was 34.4%.
In the case of `O=C(NCCCCCCCCCCNc1c2c(nc3cc(Cl)ccc13)CCCC2)c1ccc2nc(-c3ccc(Cl)cc3)c3c(c2c1)OCCC3`, the inhibition [3] is reported as 20.5%, the IC50 (Acetylcholinesterase [4]) is reported as 50 nM and the IC50 (Cholinesterase) is reported as 1620 nM. The IC50 (Acetylcholinesterase [5]) was 93.7 nM and the inhibition (Beta-secretase 1 [6]) was “inactive”.
In the case of `COC(=O)CCc1ccc2nc(-c3ccccc3)c3c(c2c1)OCCC3`, the inhibition [3] is reported as “inactive”, the IC50 (Acetylcholinesterase [5]) is reported as over 10000 nM and the inhibition (Beta-secretase 1 [6]) is reported as “inactive”.
For `Cl.Cl.Cl.Cl.O=C(NCCCCCCCNc1c2c(nc3cc(Cl)ccc13)CCCC2)c1ccc2nc(-c3ccc(Cl)cc3)c3c(c2c1)OCCC3`, the Papp (in vitro [1]) was 17.7 ×10⁻⁶ cm/s, the inhibition [3] was 28.6% and the IC50 (Acetylcholinesterase [4]) was 18.3 nM. For the same molecule, the IC50 (Cholinesterase) was 1930 nM, the IC50 (Acetylcholinesterase [5]) was 10.3 nM and the inhibition (Beta-secretase 1 [6]) was 14.5%.
`c1ccc2c(NCCCCCCCNc3c4c(nc5ccccc35)CCCC4)c3c(nc2c1)CCCC3` gave an IC50 (Beta-secretase 1 [2]) of 7500 nM.
`Cl.Cl.O=C(CCc1ccc2nc(-c3ccccc3)c3c(c2c1)OCCC3)NCCCCCNc1c2c(nc3cc(Cl)ccc13)CCCC2` gave a Papp (in vitro [1]) of 10.6 ×10⁻⁶ cm/s, an inhibition [3] of 12.2% and an IC50 (Acetylcholinesterase [4]) of 9.64 nM. For the same molecule, the IC50 (Cholinesterase) was 290 nM, the IC50 (Acetylcholinesterase [5]) was 23.9 nM and the inhibition (Beta-secretase 1 [6]) was “inactive”.
With `CC[N+](C)(CC)CCC[n+]1c(-c2ccccc2)c2cc(N)ccc2c2ccc(N)cc21` [PROPIDIUM] the inhibition [3] was 89.8% and the IC50 (Acetylcholinesterase [5]) was 6290 nM.
In the case of `Cl.Cl.Cl.Cl.O=C(NCCCCCCNc1c2c(nc3cc(Cl)ccc13)CCCC2)c1ccc2nc(-c3ccc(Cl)cc3)c3c(c2c1)OCCC3`, the Papp (in vitro [1]) is reported as 14.9 ×10⁻⁶ cm/s, the inhibition [3] is reported as 16.4% and the IC50 (Acetylcholinesterase [4]) is reported as 19.2 nM. The IC50 (Cholinesterase) was 1070 nM, the IC50 (Acetylcholinesterase [5]) was 20.4 nM and the inhibition (Beta-secretase 1 [6]) was “inactive”.
Molecule `Cl.Cl.Cl.O=C(CCc1ccc2nc(-c3ccccc3)c3c(c2c1)OCCC3)NCCCCCCNc1c2c(nc3cc(Cl)ccc13)CCCC2` has an inhibition [3] of 30.8%, an IC50 (Acetylcholinesterase [4]) of 11.1 nM and an IC50 (Cholinesterase) of 218 nM. The IC50 (Acetylcholinesterase [5]) was 30.8 nM, the Papp (in vitro [7]) was 13.2 ×10⁻⁶ cm/s and the inhibition (Beta-secretase 1 [6]) was 19.6%.

Source: ChEMBL document CHEMBL1152433, “Pyrano[3,2-c]quinoline-6-chlorotacrine hybrids as a novel family of acetylcholinesterase- and beta-amyloid-directed anti-Alzheimer compounds” (J Med Chem, 2009)
